According to patent US12636317B2, “Manipulation and use of antigen-specific regulatory T cells” (The Board of Trustees of the Leland Stanford Junior …, priority 2019, dated 2026):

Tests used:
EAE6-CD8 TCR = type: binding, mouse; conditions: Jurkat αβ−/− cells, H2-Db tetramer
SP specific CD8+ T cells = assay: Tetramer enrichment of SP-specific CD8+ T cells from spleen and LN after immunization; type: in vivo, C57BL/6J mice; conditions: 10D PI
EAE7-CD8 TCR = type: binding, mouse; conditions: Jurkat αβ−/− cells, H2-Db tetramer
[1] = tested on: experimental autoimmune encephalomyelitis (EAE); assay: Induction and evaluation of EAE (clinical scores); type: in vivo, C57BL/6J mice
[2] = tested on: MOG35-55 specific CD4+ T cells; assay: Tetramer enrichment of MOG35-55 I-Ab specific CD4+ T cells from spleen and LN after immunization; type: in vivo, C57BL/6J mice; conditions: D10 after immunization
[3] = tested on: MOG35-55 specific CD4+ T cells; assay: In vitro proliferation/suppression assay (CTV dilution); type: cell-based, mouse; conditions: CD4+ T cells from MOG immunized mice stimulated with MOG35-55
Description: In vitro proliferation/suppression assay. Spleen and LN cells were harvested from WT or immunized mice. Single cell suspensions were prepared, and RBCs were lysed using Ack lysis buffer (ThermoFisher scientific A1049201). […] Post CD4+ T cell enrichment, cells were counted and labelled with CellTrace™ Violet Dye (ThermoFisher scientific C34557) according to manufacturer instructions.
In vitro proliferation/suppression assays were set up according to previously published protocol. Briefly, labelled CD4+ T cells were co-cultured either with CD8+ T cells (1:1 ratio, 0.25×10^6 cells/well) or without CD8+ T cells in the presence of pan DC's (0.75×10^6 cells/well). In some of the suppression experiments cells were pre-included with 10 μg/ml of anti-Qa-1b neutralizing antibody (6A8.6F10.1A16, BD Biosciences). Cells were cultured in a total volume of 200 μl in a 96-well round bottom plate. The CD4+ T cells were stimulated with either MOG35-55 or not. On day 7, the cells were washed and stained with surface antibodies and analyzed on LSR II (Becton Dickinson).

[4] = tested on: ovalbumin specific TCR (OT-1) expressed in 58 αβ−/− cells; assay: T cell stimulation assay (CD69) with peptide- or protein-pulsed BMDCs; type: cell-based, mouse; conditions: co-culture with loaded BMDCs
Description: T cell stimulation assays. T cell stimulation assays were performed as previously described. All the T cell peptide stimulation experiments were done in 96 well round bottom plates with a 200 μl total volume. T2, K562 cells or BMDCs were pulsed with 10-100 μg of the peptides for 45 minutes, washed once and plated (10,000 cells/well). Cell lines expressing TCRs (100,000 cells/well) were co-cultured with APCs for 18 hr. At the end of stimulation, cells were harvested, washed, and stained with TCRβ, human CD3, and CD69 and analyzed on LSR II (Becton Dickinson) for activation.

6218 TCR = type: binding, mouse; conditions: Jurkat αβ−/− cells, H2-Db tetramer
[5] = target: T1, surrogate peptide (SP) from the yeast H2-Db library; no match in the mouse genome peptide on H2-Db (mouse); assay: multimer staining
T1 peptide: SMRPNHFFFL

[6] = target: T2, surrogate peptide (SP) from the yeast H2-Db library; no match in the mouse genome peptide on H2-Db (mouse); assay: multimer staining
T2 peptide: ASRSNRYFWL

[7] = target: T3, yeast H2-Db library peptide enriched by the EAE6-CD8 TCR peptide on H2-Db (mouse); assay: binding, other
T3 peptide: GTEFNHWAAI

[8] = target: T4, yeast H2-Db library peptide enriched by the EAE6-CD8 TCR peptide on H2-Db (mouse); assay: binding, other
T4 peptide: ASIANWPLAI

[9] = target: T5, yeast H2-Db library peptide enriched by the EAE6-CD8 TCR peptide on H2-Db (mouse); assay: binding, other
T5 peptide: NHRTNRYFFL

[10] = target: T6, yeast H2-Db library peptide enriched by the EAE6-CD8 TCR peptide on H2-Db (mouse); assay: binding, other
T6 peptide: NHRNNRYFFL

[11] = target: T7, yeast H2-Db library peptide enriched by the EAE6-CD8 TCR peptide on H2-Db (mouse); assay: binding, other
T7 peptide: FQRGNRLMWL

[12] = target: T8, myelin oligodendrocyte glycoprotein (MOG); the tetramer is called MOG35-55 I-Ab in the results peptide on … (mouse); assay: multimer staining
T8 peptide: GWYRSPFSRVV

[13] = target: T9, surrogate peptide (SP) from the yeast H2-Db library; no match in the mouse genome peptide on H2-Db (mouse); assay: multimer staining
T9 peptide: YQPGNWEYI

[14] = target: T10, surrogate peptide (SP) from the yeast H2-Db library; no match in the mouse genome peptide on H2-Db (mouse); assay: multimer staining
T10 peptide: HDRVNWEYI

[15] = target: T11, yeast H2-Db library peptide enriched by the EAE7-CD8 TCR peptide on H2-Db (mouse); assay: binding, other
T11 peptide: WSLRNLVML

[16] = target: T12, yeast H2-Db library peptide enriched by the EAE7-CD8 TCR peptide on H2-Db (mouse); assay: binding, other
T12 peptide: TCAYNPRGM

[17] = target: T13, yeast H2-Db library peptide enriched by the EAE7-CD8 TCR peptide on H2-Db (mouse); assay: binding, other
T13 peptide: TRLVNDVDL

[18] = target: T14, yeast H2-Db library peptide enriched by the EAE7-CD8 TCR peptide on H2-Db (mouse); assay: binding, other
T14 peptide: RDVHNPDVI

[19] = target: T15, yeast H2-Db library peptide enriched by the EAE7-CD8 TCR peptide on H2-Db (mouse); assay: binding, other
T15 peptide: RRILNLGGM

[20] = target: T16, yeast H2-Db library peptide enriched by the EAE7-CD8 TCR peptide on H2-Db (mouse); assay: binding, other
T16 peptide: QRHENLHRM

[21] = MOG+SP immunization, spleen and LN
[22] = SP immunization in comparison to WT mice
[23] = Table 6, MOG35-55 with or without SP, mean ± SEM
[24] = Table 6, immunization with MOG35-55, CFA and PTX with or without SP, n=10
[25] = Table 7, MOG, SP challenge, MOG challenge (challenge seven days after first immunization), n=10
[26] = Table 7, challenge seven days after first immunization, affected if clinical scores ≥1 for ≥2 consecutive days
[27] = Table 7, challenge seven days after first immunization, mean ± SEM

ASRSNRYFWL [surrogate peptide for EAE6-CD8 TCR from H2-Db yeast library]
pMHC tetramer staining of EAE6-CD8 TCR cells (EAE6-CD8 TCR): robust staining
frequency of CD8+ T cells specific for the peptide (SP specific CD8+ T cells; [21]): increased
frequency of CD8+ T cells specific for the peptide (SP specific CD8+ T cells; [22]): no change

HDRVNWEYI [36th enriched peptide for EAE7-CD8 TCR]
frequency of CD8+ T cells specific for the peptide (SP specific CD8+ T cells; [21]): increased
frequency of CD8+ T cells specific for the peptide (SP specific CD8+ T cells; [22]): higher frequency
pMHC tetramer staining of EAE7-CD8 TCR cells (EAE7-CD8 TCR): robust tetramer staining

MOG35-55: EAE-inducing myelin oligodendrocyte glycoprotein peptide 35-55 (MEVGWYRSPFSRVVHLYRNGK; UniProt Q61885 63-83, looked up, fragment)
incidence of EAE disease (of the mice) ([1]; MOG immunization with or without SP): 100%
CDS, cumulative disease score [1, 23]: 46.3 ± 5.9
DA, days affected [1, 23]: 16.3 ± 0.7
DO, day of onset in affected animals [1, 23]: 13.8 ± 0.2
PS, peak score [1, 23]: 3.2 ± 0.4
SI, severity index (cumulative disease score/days affected) [1, 23]: 3 ± 0.4
Incidence (affected/total) [1, 24]: 10/10
Incidence, percentage affected [1, 24]: 100%
Incidence (affected/total) [1, 25]: 10/10
Incidence, percentage affected [1, 26]: 100%
CDS, cumulative disease score over 30 days of experiment [1, 27]: 55.8 ± 3.9
DA, days affected [1, 27]: 17 ± 0.3
DO, day of onset in affected animals [1, 27]: 13.3 ± 0.3
PS, peak score [1, 27]: 4 ± 0.1
SI, severity index (cumulative disease score/days affected) [1, 27]: 3.14 ± 0.2
frequency/number of MOG35-55 I-Ab tetramer+ CD4+ T cells [2]: elicited
frequency/number of MOG35-55 I-Ab tetramer+ CD4+ T cells ([2]; listed as MOG): increase
SP specific CD8+ T cells detected (SP specific CD8+ T cells; MOG35-55 immunized mice): very few
CD4+ T cell proliferation in the absence of CD8+ T cells [3]: proliferated robustly

MOG challenge: mice immunized with SP, then challenged with MOG35-55 seven days after immunization (MEVGWYRSPFSRVVHLYRNGK; UniProt Q61885 63-83, looked up, fragment)
Incidence (affected/total) [1, 25]: 6/10
Incidence, percentage affected [1, 26]: 60%
CDS, cumulative disease score over 30 days of experiment [1, 27]: 43.3 ± 5.3
DA, days affected [1, 27]: 8.2 ± 2.5
DO, day of onset in affected animals [1, 27]: 10 ± 2.8
PS, peak score [1, 27]: 1.5 ± 0.4
SI, severity index (cumulative disease score/days affected) [1, 27]: 1.29 ± 0.3

SIINFEKL [ovalbumin derived peptide]
activation (CD69) of OT-1 TCR cells [4]: robust activation

SMRPNHFFFL [surrogate peptide for EAE6-CD8 TCR from H2-Db yeast library]
pMHC tetramer staining of EAE6-CD8 TCR cells (EAE6-CD8 TCR): robust staining
frequency of CD8+ T cells specific for the peptide (SP specific CD8+ T cells; [21]): increased
frequency of CD8+ T cells specific for the peptide (SP specific CD8+ T cells; [22]): higher frequency

SSLENFRAYV [H2-Db-restricted acid polymerase peptide 224-233, ligand of 6218 TCR]
pMHC tetramer staining of 6218 TCR cells (6218 TCR): robust staining

YQPGNWEYI [top enriched surrogate peptide for EAE7-CD8 TCR]
frequency of CD8+ T cells specific for the peptide (SP specific CD8+ T cells; [22]): no change
pMHC tetramer staining of EAE7-CD8 TCR cells (EAE7-CD8 TCR): robust staining

B1: EAE6-CD8 (TCR)
alpha mTRAV12-1 mTRAJ31 CDR3: CALSDYNRIFF
beta mTRBV19 mTRBJ2-3 CDR3: CASSITPLGGLETLYF
binding result [5]: recognises
binding result [6]: recognises
binding result [7]: recognises
binding result [8]: recognises
binding result [9]: recognises
binding result [10]: recognises
binding result [11]: recognises

B2: EAE3-CD4 (TCR)
alpha mTRAV14D-1 mTRAJ43 CDR3: CAASGANNNNAPRF
beta mTRBV3 mTRBJ2-5 CDR3: CASSLEGHQDTQYF
binding result [12]: recognises

B3: EAE2-CD4 (TCR)
alpha mTRAV12-1 mTRAJ23 CDR3: CALRNYNQGKLIF
beta mTRBV16 mTRBJ1-4 CDR3: CASSLDQGWDERLFF
binding result [12]: recognises

B4: EAE7-CD8 (TCR)
alpha mTRAV5D-4 mTRAJ45 CDR3: CAASVNTEGADRLTF
beta mTRBV15 mTRBJ1-1 CDR3: CASTNRGEVFF
binding result [13]: recognises
binding result [14]: recognises
binding result [15]: recognises
binding result [16]: recognises
binding result [17]: recognises
binding result [18]: recognises
binding result [19]: recognises
binding result [20]: recognises

B5: ovalbumin protein: whole OVA protein (protein, UniProt P01012 2-386, looked up)
Ovalbumin: GSIGAASMEFCFDVFKELKVHHANENIFYCPIAIMSALAMVYLGAKDSTRTQINKVVRFDKLPGFGDSIEAQCGTSVNVHSSLRDILNQITKPNDVYSFSLASRLYAEERYPILPEYLQCVKELYRGGLEPINFQTAADQARELINSWVESQTNGIIRNVLQPSSVDSQTAMVLVNAIVFKGLWEKAFKDEDTQAMPFRVTEQESKPVQMMYQIGLFRVASMASEKMKILELPFASGTMSMLVLLPDEVSGLEQLESIINFEKLTEWTSSNVMEERKIKVYLPRMKMEEKYNLTSVLMAMGITDVFSSSANLSGISSAESLKISQAVHAAHAEINEAGREVVGSAEAGVDAASVSEEFRADHPFLFCIKHIATNAVLFFGRCVSP
activation (CD69) of OT-1 TCR cells [4]: robustly stimulated
